According to PMC10892984, “Novel Antineoplastic Inducers of Mitochondrial Apoptosis in Human Cancer Cells” (Molecules, 2024):

Key:
SK-MEL-28 = details: for TGI: SK-MEL-28, melanoma, mutant p53, 48 h
CAKI-1 = details: for TGI: CAKI-1, renal cancer, wild-type p53, 48 h
UO-31 = details: for TGI: UO-31, renal cancer, wild-type p53, 48 h
HCT-15 = details: for TGI: HCT-15, colon cancer, mutant p53, 48 h
OVCAR-8 = details: for TGI: OVCAR-8, ovarian cancer, mutant p53, 48 h
RXF 393 = details: for TGI: RXF 393, renal cancer, mutant p53, 48 h
SK-MEL-5 = details: for TGI: SK-MEL-5, melanoma, wild-type p53, 48 h
SK-MEL-2 = details: for TGI: SK-MEL-2, melanoma, mutant p53, 48 h
PC-3 cells = assay: Cytochrome c assay (mitochondrial and cytosolic), ELISA; assay type: cell-based, human; details: for toxicity for the cell line / concentration at which cytochrome c translocation from mitochondria into the cytosol was readily induced: 25 µM; for toxicity for the cell line: 50 µM and 75 µM, 48 h post-treatment; for concentration at which cytochrome c translocation from mitochondria into the cytosol was readily induced: tested 500 nM, 1 µM, 5 µM
Procedure: (§1) Cell numbers of 2 × 10^6 PC-3 and DU-145 cells were seeded into a […]. […] The protein content for each fraction was calculated to determine the mass content of cytochrome c in each fraction (pg cytochrome c/mg total protein). The mass content of cytochrome c (pg cytochrome c/mg total protein) was normalized towards the corresponding blank DMSO control and is given in percent (%) of blank DMSO control.

DU-145 cells = assay: as above; assay type: cell-based, human; details: for toxicity for the cell line / concentration at which cytochrome c translocation from mitochondria into the cytosol was readily induced: 25 µM; for toxicity for the cell line: 50 µM and 75 µM, 48 h post-treatment; for concentration at which cytochrome c translocation from mitochondria into the cytosol was readily induced: tested 500 nM, 1 µM, 5 µM
Procedure: as §1

PC-3 = details: for TGI: PC-3, prostate cancer, mutant p53 (null p53 protein), 48 h
OVCAR-3 = details: for TGI: OVCAR-3, ovarian cancer, mutant p53, 48 h
SF-295 = details: for TGI: SF-295, CNS cancer (brain tumor), mutant p53, 48 h
A549 = details: for TGI: A549, non-small-cell lung cancer, wild-type p53, 48 h
UACC-257 = details: for TGI: UACC-257, melanoma, wild-type p53, 48 h
SN12C = details: for TGI: renal cancer, mutant p53, 48 h
786-0 = details: for TGI: 786-0, renal cancer, mutant p53, 48 h
IGROV1 = details: for TGI: IGROV1, ovarian cancer, mutant p53, 48 h
MOLT-4 = details: for TGI: MOLT-4, leukemia, mutant p53, 48 h
NCI/ADR-RES = details: for TGI: ovarian cancer, mutant p53, 48 h
OVCAR-5 = details: for TGI: OVCAR-5, ovarian cancer, p53 Lit. inconclusive, 48 h
KM-12 = details: for TGI: KM-12, colon cancer, mutant p53, 48 h
T-47D = details: 48 h; for TGI: T-47D, breast cancer, mutant p53
A498 = details: for TGI: A498, renal cancer, wild-type p53, 48 h
HOP-62 = details: for TGI: HOP-62, non-small-cell lung cancer, mutant p53, 48 h
LOX IMVI = details: for TGI: melanoma, wild-type p53, 48 h
NCI-H226 = details: for TGI: NCI-H226, non-small-cell lung cancer, p53 Lit. inconclusive, 48 h
[1] = Homo sapiens, 48 h, read-out: LC50

COc1cc2c(c(OC)c1OC)-c1ccc(NNC(=S)N(Cc3cccc(C[N+](Cc4cccc(CNC56CC7CC(CC(C7)C5)C6)c4)(Cc4cccc(CNC56CC7CC(CC(C7)C5)C6)c4)Cc4cccc(CN(C(=S)NNc5ccc6c(cc5=O)C(NC(C)=O)CCc5cc(OC)c(OC)c(OC)c5-6)C56CC7CC(CC(C7)C5)C6)c4)c3)C34CC5CC(CC(C5)C3)C4)c(=O)cc1C(NC(C)=O)CC2 [Compound 3, [(bis{3-[(tricyclo[3.3.1.1^3,7]decan-1-ylamino)methyl]benzyl}ammonio)bis(methanediylbenzene-3,1-diylmethanediyl)]di-2-[(aS,7S)-7-(acetylamino)-1,2,3-trimethoxy-9-oxo-5,6,7,9-tetrahydrobenzo[a]heptalen-10-yl]-N-(tricyclo[3.3.1.1^3,7]decan-1-yl)hydrazinecarbothioamide chloride pentahydrate]
TGI (SK-MEL-28): 4.07 µM | TGI (CAKI-1): 7.37 µM | TGI (UO-31): 7.20 µM | TGI (HCT-15): 5.96 µM | TGI (OVCAR-8): 7.49 µM | TGI (RXF 393): 6.65 µM | TGI (SK-MEL-5): 2.25 µM | TGI (SK-MEL-2): 2.76 µM | toxicity for the cell line (PC-3 cells): highly toxic | cell death with depletion of cytosolic cytochrome c (PC-3 cells; 25.0 µM, 48 h): induced complete cell death | concentration at which cytochrome c translocation from mitochondria into the cytosol was readily induced (PC-3 cells; 48 h): 5.0 µM | toxicity for the cell line (DU-145 cells): highly toxic | concentration at which cytochrome c translocation from mitochondria into the cytosol was readily induced (DU-145 cells; 48 h): 25.0 µM | TGI (PC-3): 5.64 µM | TGI (OVCAR-3): 6.53 µM | TGI (SF-295): 5.92 µM | TGI (A549): 6.00 µM | TGI (UACC-257): 10.3 µM | TGI (SN12C): 6.90 µM | TGI (786-0): 5.28 µM | TGI (IGROV1): 5.95 µM | TGI (MOLT-4): 1.93 µM | TGI (NCI/ADR-RES): 12.5 µM | TGI (OVCAR-5): 5.03 µM | TGI (KM-12): 4.52 µM | TGI (T-47D): 9.40 µM | TGI (A498): 3.28 µM | TGI (HOP-62): 7.43 µM | TGI (LOX IMVI): 2.86 µM | TGI (NCI-H226): 9.97 µM

c1cc(CNC23CC4CC(CC(C4)C2)C3)cc(C[N+](Cc2cccc(CNC34CC5CC(CC(C5)C3)C4)c2)(Cc2cccc(CNC34CC5CC(CC(C5)C3)C4)c2)Cc2cccc(CNC34CC5CC(CC(C5)C3)C4)c2)c1 (centres unmarked) [Compound 1, tetrakis{3-[(tricyclo[3.3.1.1^3,7]decan-1-ammonio)methyl]benzyl}ammonium pentachloride]
GI50 (SK-MEL-28; Homo sapiens, SK-MEL-28, 48 h): 1.66 µM | CC50 (SK-MEL-28; Homo sapiens, SK-MEL-28, 48 h, read-out: LC50): 21.9 µM | TGI (SK-MEL-28): 7.91 µM | TGI (CAKI-1): 4.70 µM | GI50 (CAKI-1; Homo sapiens, CAKI-1, 48 h): 1.28 µM | CC50 (CAKI-1; Homo sapiens, CAKI-1, 48 h, read-out: LC50): 15.4 µM | GI50 (UO-31; Homo sapiens, UO-31, 48 h): 0.817 µM | CC50 (UO-31; Homo sapiens, UO-31, 48 h, read-out: LC50): 4.73 µM | TGI (UO-31): 1.96 µM | TGI (HCT-15): 3.91 µM | GI50 (HCT-15; Homo sapiens, HCT-15, 48 h): 1.1 µM | CC50 (HCT-15; Homo sapiens, HCT-15, 48 h, read-out: LC50): 18.4 µM | GI50 (OVCAR-8; Homo sapiens, OVCAR-8, 48 h): 2.07 µM | CC50 (OVCAR-8; Homo sapiens, OVCAR-8, 48 h, read-out: LC50): 35.3 µM | TGI (OVCAR-8): 8.48 µM | GI50 (RXF 393; Homo sapiens, RXF 393, 48 h): 0.811 µM | CC50 (RXF 393; Homo sapiens, RXF 393, 48 h, read-out: LC50): 3.02 µM | TGI (RXF 393): 1.56 µM | GI50 (SK-MEL-5; Homo sapiens, SK-MEL-5, 48 h): 1.52 µM | CC50 (SK-MEL-5; Homo sapiens, SK-MEL-5, 48 h, read-out: LC50): 18.6 µM | TGI (SK-MEL-5): 6.28 µM | GI50 (SK-MEL-2; Homo sapiens, SK-MEL-2, 48 h): 1.06 µM | CC50 (SK-MEL-2; Homo sapiens, SK-MEL-2, 48 h, read-out: LC50): 15.6 µM | TGI (SK-MEL-2): 3.20 µM | toxicity for the cell line (PC-3 cells): highly toxic | concentration at which cytochrome c translocation from mitochondria into the cytosol was readily induced (PC-3 cells; 48 h): 25.0 µM | toxicity for the cell line (DU-145 cells): highly toxic | cell death with depletion of cytosolic cytochrome c (DU-145 cells; 25.0 µM, 48 h): induced complete cell death | concentration at which cytochrome c translocation from mitochondria into the cytosol was readily induced (DU-145 cells; 48 h): 5.0 µM | GI50 (PC-3; Homo sapiens, PC-3, 48 h): 1.4 µM | CC50 (PC-3; Homo sapiens, PC-3, 48 h, read-out: LC50): 21.4 µM | TGI (PC-3): 5.17 µM | GI50 (OVCAR-3; Homo sapiens, OVCAR-3, 48 h): 1.04 µM | CC50 (OVCAR-3; Homo sapiens, OVCAR-3, 48 h, read-out: LC50): 9.97 µM | TGI (OVCAR-3): 2.82 µM | GI50 (SF-295; Homo sapiens, SF-295, 48 h): 3.05 µM | CC50 (SF-295; Homo sapiens, SF-295, 48 h, read-out: LC50): 28.2 µM | TGI (SF-295): 10.4 µM | TGI (A549): 8.70 µM | GI50 (A549; Homo sapiens, A549, 48 h): 2.13 µM | CC50 (A549; Homo sapiens, A549, 48 h, read-out: LC50): 24.2 µM | GI50 (UACC-257; Homo sapiens, UACC-257, 48 h): 3.08 µM | CC50 (UACC-257; Homo sapiens, UACC-257, 48 h, read-out: LC50): 29.4 µM | TGI (UACC-257): 10.8 µM | GI50 (SN12C; Homo sapiens, 48 h): 1.41 µM | CC50 (SN12C; [1]): 15.8 µM | TGI (SN12C): 4.43 µM | TGI (786-0): 1.85 µM | GI50 (786-0; Homo sapiens, 786-0, 48 h): 0.848 µM | CC50 (786-0; Homo sapiens, 786-0, 48 h, read-out: LC50): 4.05 µM | GI50 (IGROV1; Homo sapiens, IGROV-1, 48 h): 0.886 µM | CC50 (IGROV1; Homo sapiens, IGROV-1, 48 h, read-out: LC50): 8.65 µM | TGI (IGROV1): 2.34 µM | GI50 (MOLT-4; Homo sapiens, MOLT-4, 48 h): 1.32 µM | CC50 (MOLT-4; Homo sapiens, MOLT-4, 48 h, read-out: LC50): > 50 µM | TGI (MOLT-4): 4.09 µM | GI50 (NCI/ADR-RES; Homo sapiens, 48 h): 1.44 µM | CC50 (NCI/ADR-RES; [1]): > 50 µM | TGI (NCI/ADR-RES): 4.55 µM | GI50 (OVCAR-5; Homo sapiens, OVCAR-5, 48 h): 0.977 µM | CC50 (OVCAR-5; Homo sapiens, OVCAR-5, 48 h, read-out: LC50): 10.8 µM | TGI (OVCAR-5): 2.76 µM | GI50 (KM-12; Homo sapiens, KM12, 48 h): 1.65 µM | CC50 (KM-12; Homo sapiens, KM12, 48 h, read-out: LC50): 20.6 µM | TGI (KM-12): 6.75 µM | GI50 (T-47D; Homo sapiens, T47D): 1.34 µM | CC50 (T-47D; Homo sapiens, T47D, read-out: LC50): 38 µM | TGI (T-47D): 6.72 µM | TGI (A498): 7.05 µM | GI50 (A498; Homo sapiens, A498, 48 h): 1.19 µM | CC50 (A498; Homo sapiens, A498, 48 h, read-out: LC50): 21.2 µM | TGI (HOP-62): 10.1 µM | GI50 (HOP-62; Homo sapiens, HOP-62, 48 h): 2.66 µM | CC50 (HOP-62; Homo sapiens, HOP-62, 48 h, read-out: LC50): 29.7 µM | GI50 (LOX IMVI; Homo sapiens, 48 h): 0.505 µM | CC50 (LOX IMVI; [1]): 3.18 µM | TGI (LOX IMVI): 1.27 µM | GI50 (NCI-H226; Homo sapiens, NCI-H226, 48 h): 2.76 µM | CC50 (NCI-H226; Homo sapiens, NCI-H226, 48 h, read-out: LC50): 31.2 µM | TGI (NCI-H226): 10.8 µM
